How the values were obtained:
[1] = 2D-GE plasma proteome profile of T. cruzi infected rats treated with PBN and/or BZ; format: in vivo, Sprague Dawley rats; conditions: chronically infected rats (RCP, RCB, RCPB), depleted plasma
Method: (§1) Animals and parasites. Sprague Dawley rats (4-5-weeks-old, Harlan Labs) were infected with T. cruzi (SylvioX10/4, 50,000 trypomastigotes/rat, intraperitoneal). Rats were given 1.3 mM PBN (beginning day 0, throughout the course of infection) and/or 0.7 mM BZ (beginning day 40 pi, for three weeks) in drinking water. The plasma samples were obtained at acute ([…] days post-infection (dpi)) and chronic (>150 dpi) stages of infection and disease development.
(§2) Rat plasma collection and removal of high-abundance proteins. Whole blood was collected in K3EDTA vacutainers and kept on ice for 30 min. The samples were centrifuged for 15 min at 3,000 g, and the lipid-containing upper layer was removed. The abundant proteins (e.g., albumin, α1-acid glycoprotein, α1-antitrypsin, α2-5 macroglobulin, apolipoproteins (ApoA-I, ApoA-II), fibrinogen, haptoglobin, immunoglobulins (IgA, IgG, and IgM), and transferrin) in plasma were removed using ProteomeLab IgY-12 LC 10 affinity spin columns (Beckman Coulter). The plasma samples depleted of abundant proteins were then concentrated by using Amicon® ultra centrifugal filters (3 kDa cut-off, from Millipore) and desalted by PD-10 desalting columns (GE Healthcare). Protein content was determined by using the Bradford assay (Bio-Rad).
(§3) Two-dimensional gel electrophoresis. The 11-cm immobilized pH gradient (IPG) strips (pH: 3-10 or 5-8, Bio-Rad) were rehydrated at 50 V for 12 h with 250-μl rehydration buffer (1 M thiourea, 8 M urea, 2% CHAPS, 1% dithiothreitol, and 0.2% ampholytes) containing 200-μg protein samples and 0.002% of bromophenol blue. Isoelectric focusing was performed at 500 V for 1 h, 1000 V for 1 h, 8000 V for 2 h, and then at 8000 V for a total of 50,000 Vh. The IPG strips were suspended in equilibration buffer (50 mM Tris-HCI, pH 6.8, 6 M urea, 20% glycerol) and sequentially incubated for 15 min each in presence of 2% DTT/2% SDS (reducing conditions) and 2.5% iodoacetamide/2% SDS (alkylating conditions). Equilibrated IPG strips were subjected to second-dimension electrophoresis by using 8-10% linear gradient precast Tris-HCI gels (BioRad) on a PROTEAN plus Dodeca Cell System at 75 V for 1 h and then at 120 V until the dye front reached the bottom of the gel. Gels were fixed in 10% methanol/7% acetic acid, stained with SYPRO Ruby (BioRad), destained in 10% ethanol/7% acetic acid, and imaged by using a high-resolution ProXPRESS Proteomic Imaging System (Perkin Elmer).
(§4) Image analysis. In total, 28 SYPRO Ruby-stained 2D gels (n=4/group) were digitalized on a ProXPRESS Proteomic Imaging System (Perkin Elmer), and the images were analyzed on Progenesis SameSpots™ software 2.0 (NonLinear Dynamics). Normalized spot volumes, i.e., the volume of each spot over the volume of all spots in the gel, were used for comparison of the different groups, and candidates were identified as protein spots that changed at least 2-fold versus their specific control. Statistical significance was assessed by a two-tailed Student's t-test and analysis of variance test (ANOVA), and p values of <0.05 were considered significant for comparison between control and experimental data.
(§5) Sprague Dawley rats were infected with T. cruzi and treated with phenyl-α-tert-butyl nitrone (PBN, antioxidant) with or without benznidazole (BZ, anti-parasite drug). Plasma samples were collected at day 25 (acute stage) and 150 (chronic stage) post-infection, and depleted of high-abundance proteins to enrich detection of low-abundance proteins by 2D-gel electrophoresis. Gel images of plasma samples from normal rats (RN), rats that were acutely infected (RA) and treated with PBN (RAP), and chronically infected rats (RC) that were treated with PBN (RCP), BZ (RCB), or PBN and BZ (RCPB) were analyzed on Progenesis SameSpotst™ software and normalized spot volumes were used for comparison of different groups.

T. cruzi [2] = assay: as above; format: in vivo, Sprague Dawley rats
Method: as §1, §2, §3, §4, §5

T. cruzi [3] = assay: Detection of carbonyl proteins (DNPH, anti-DNP Western blotting) in plasma of T. cruzi infected rats; format: in vivo, Sprague Dawley rats
Method: as §1
Detection of carbonyl proteins. IPG strips were loaded with protein samples and subjected to 1st-dimension isoelectric focusing, as above. IPG strips were then incubated with 1 ml of 3% SDS and 5 mM 2,4-dinitrophenylhydrazine (DNPH)/10% trifluoroacetic acid for 25 min. […] Membranes were hybridized with rabbit anti-DNP antibody (1:300 dilution, Invitrogen) and HRP-conjugated goat anti-rabbit secondary antibody (1:4000 dilution, Sigma), and signal detected by using an Amersham™ ECL Plus system, according to the manufacturer's protocol (Levine et al., (1990) Methods Enzymol, 186, 464-78; Wen and Garg, (2004) Free Radic Biol Med, 37, 2072-81). Images were visualized, digitized, and signal was quantified by densitometry by using a FluorChem 8800 image analyzer (Alpha Innotech). […]

Trypanosoma cruzi = conditions: cited from earlier work
[4] = chronically infected rats (RCP, RCB, RCPB), depleted plasma

O=C(Cn1ccnc1[N+](=O)[O-])NCc1ccccc1 [BZ, Benznidazole]
Average Normalized Density × 100,000, spot 106 CDK5RAP2 [1]: 2.21
number of proteins stimulated in a treatment-specific manner (T. cruzi [2]; chronic chagasic plasma): 2
number of proteins with altered expression (T. cruzi [2]; chronic chagasic plasma, 22 of the 61 shared with BZ-treated rats): 22
decline in the plasma proteome profile (T. cruzi [2]; chronically infected rats): 30.1%
Average Normalized Density × 100,000, spot 12, 180 KRT1 (T. cruzi [2]; [4]): 9.47
Average Normalized Density × 100,000, spot 34 TTC37 (T. cruzi [2]; [4]): 0.37
Average Normalized Density × 100,000, spot 37, 593 SRPRB (T. cruzi [2]; [4]): 3.21
Average Normalized Density × 100,000, spot 49, 673 IGH-1 (T. cruzi [2]; [4]): 3.98
Average Normalized Density × 100,000, spot 52, 54, 302 TF (T. cruzi [2]; [4]): 0.60
Average Normalized Density × 100,000, spot 53, 225 SroTP (T. cruzi [2]; [4]): 1.72
Average Normalized Density × 100,000, spot 72 IDH3A (T. cruzi [2]; [4]): 83.09
Average Normalized Density × 100,000, spot 73, 705, 787 ALB (T. cruzi [2]; [4]): 216.9
Average Normalized Density × 100,000, spot 77 MUG1 (T. cruzi [2]; [4]): 107.7
Average Normalized Density × 100,000, spot 88 IGHG- (T. cruzi [2]; [4]): 4.75
Average Normalized Density × 100,000, spot 94 FGB (T. cruzi [2]; [4]): 0.55
Average Normalized Density × 100,000, spot 115, 123 SERPINAL1 (T. cruzi [2]; [4]): 8.36
Average Normalized Density × 100,000, spot 149 PUS1 (T. cruzi [2]; [4]): 1.16
Average Normalized Density × 100,000, spot 153 MYL2 (T. cruzi [2]; [4]): 2.37
Average Normalized Density × 100,000, spot 177 AIM (T. cruzi [2]; [4]): 2.77
Average Normalized Density × 100,000, spot 181 SERPINA3L (T. cruzi [2]; [4]): 7.53
Average Normalized Density × 100,000, spot 184, 257, 328 CFH (T. cruzi [2]; [4]): 6.15
Average Normalized Density × 100,000, spot 207, 555 CCHL1A1 (T. cruzi [2]; [4]): 11.32
Average Normalized Density × 100,000, spot 215 GPT (T. cruzi [2]; [4]): 3.23
Average Normalized Density × 100,000, spot 266 CEP350 (T. cruzi [2]; [4]): 1.43
Average Normalized Density × 100,000, spot 299 UMPS (T. cruzi [2]; [4]): 1.17
Average Normalized Density × 100,000, spot 315 ITIH4 (T. cruzi [2]; [4]): 5.19
Average Normalized Density × 100,000, spot 334 ZNF689 (T. cruzi [2]; [4]): 1.05
Average Normalized Density × 100,000, spot 341 Nmag 2782 (T. cruzi [2]; [4]): 1.44
Average Normalized Density × 100,000, spot 355, 359 PLG (T. cruzi [2]; [4]): 3.29
Average Normalized Density × 100,000, spot 382, 385, 378, 572, 578, 595 CFB (T. cruzi [2]; [4]): 23.45
Average Normalized Density × 100,000, spot 389 GSN (T. cruzi [2]; [4]): 44.17
Average Normalized Density × 100,000, spot 430 SCD2 (T. cruzi [2]; [4]): 13.65
Average Normalized Density × 100,000, spot 434, 678 COG1 (T. cruzi [2]; [4]): 43.20
Average Normalized Density × 100,000, spot 439 C4BPA (T. cruzi [2]; [4]): 1.36
Average Normalized Density × 100,000, spot 452 AFM (T. cruzi [2]; [4]): 59.65
Average Normalized Density × 100,000, spot 464 IGH-6 (T. cruzi [2]; [4]): 4.66
Average Normalized Density × 100,000, spot 479 IGHM (T. cruzi [2]; [4]): 8.65
Average Normalized Density × 100,000, spot 493 ZFP637 (T. cruzi [2]; [4]): 17.41
Average Normalized Density × 100,000, spot 515 CESIC/ES2 (T. cruzi [2]; [4]): 24.22
Average Normalized Density × 100,000, spot 524 ERCC4 (T. cruzi [2]; [4]): 68.54
Average Normalized Density × 100,000, spot 551, 587, 908 C3 (T. cruzi [2]; [4]): 32.88
Average Normalized Density × 100,000, spot 559 HPX (T. cruzi [2]; [4]): 17.91
Average Normalized Density × 100,000, spot 571 GC (T. cruzi [2]; [4]): 3.75
Average Normalized Density × 100,000, spot 576, 620 Act-248 (T. cruzi [2]; [4]): 2.38
Average Normalized Density × 100,000, spot 586, 614 SERPINC1 (T. cruzi [2]; [4]): 132.20
Average Normalized Density × 100,000, spot 592 DNASE1L1 (T. cruzi [2]; [4]): 11.70
Average Normalized Density × 100,000, spot 604 APOH (T. cruzi [2]; [4]): 67.12
Average Normalized Density × 100,000, spot 606 GC (T. cruzi [2]; [4]): 11.27
Average Normalized Density × 100,000, spot 627 MAPI (T. cruzi [2]; [4]): 44.92
Average Normalized Density × 100,000, spot 638 LOC501738 (T. cruzi [2]; [4]): 4.69
Average Normalized Density × 100,000, spot 649 SYNE2 (T. cruzi [2]; [4]): 26.48
Average Normalized Density × 100,000, spot 651 DSTN (T. cruzi [2]; [4]): 37.12
Average Normalized Density × 100,000, spot 655 DLGAP2 (T. cruzi [2]; [4]): 151.30
Average Normalized Density × 100,000, spot 672 SERPINF (T. cruzi [2]; [4]): 23.29
Average Normalized Density × 100,000, spot 676 rCG33447 (T. cruzi [2]; [4]): 24.67
Average Normalized Density × 100,000, spot 691 APOA4 (T. cruzi [2]; [4]): 65.41
Average Normalized Density × 100,000, spot 715 SERPINA1 (T. cruzi [2]; [4]): 30.96
Average Normalized Density × 100,000, spot 724 ALB (T. cruzi [2]; [4]): 2.19
Average Normalized Density × 100,000, spot 728 SYMPK (T. cruzi [2]; [4]): 2.21
Average Normalized Density × 100,000, spot 733 DECR2 (T. cruzi [2]; [4]): 1.67
Average Normalized Density × 100,000, spot 740 PRPH (T. cruzi [2]; [4]): 4.02
Average Normalized Density × 100,000, spot 745 PFKFB1 (T. cruzi [2]; [4]): 2.30
Average Normalized Density × 100,000, spot 749 MY05B (T. cruzi [2]; [4]): 2.46
Average Normalized Density × 100,000, spot 766 SCG2 (T. cruzi [2]; [4]): 3.79
Average Normalized Density × 100,000, spot 779, 909 VIM (T. cruzi [2]; [4]): 3.08
Average Normalized Density × 100,000, spot 796 Hypothetical p (T. cruzi [2]; [4]): 5.11
Average Normalized Density × 100,000, spot 814 RBM15B (T. cruzi [2]; [4]): 3.61
Average Normalized Density × 100,000, spot 817 BRPF1 (T. cruzi [2]; [4]): 25.15
Average Normalized Density × 100,000, spot 820, 1081 BFAR (T. cruzi [2]; [4]): 13.38
Average Normalized Density × 100,000, spot 827 GNAT (T. cruzi [2]; [4]): 10.78
Average Normalized Density × 100,000, spot 832 PSMB (T. cruzi [2]; [4]): 3.47
Average Normalized Density × 100,000, spot 860 KRT10 (T. cruzi [2]; [4]): 2.64
Average Normalized Density × 100,000, spot 867 RAI14 (T. cruzi [2]; [4]): 2.41
Average Normalized Density × 100,000, spot 881 CHD4 (T. cruzi [2]; [4]): 28.89
Average Normalized Density × 100,000, spot 897 MY05A (T. cruzi [2]; [4]): 11.65
Average Normalized Density × 100,000, spot 900 rCG25416 (T. cruzi [2]; [4]): 7.06
Average Normalized Density × 100,000, spot 906 APOE (T. cruzi [2]; [4]): 74.42
Average Normalized Density × 100,000, spot 966 CMRF-35-like molecule-7 (T. cruzi [2]; [4]): 49.99
Average Normalized Density × 100,000, spot 979 rCG25357 (T. cruzi [2]; [4]): 31.72
Average Normalized Density × 100,000, spot 992 APOA1 (T. cruzi [2]; [4]): 38.11
protein spots observed (2D-GE) (T. cruzi [2]; [4]): 2486
differentially expressed proteins identified in chagasic plasma of treated rats (T. cruzi [2]; share of differentially expressed protein spots, FIG. 7B): 17%
protein carbonylation (T. cruzi [3]; chronic chagasic plasma): not effective in preventing protein carbonylation
carbonylated protein spots (T. cruzi [3]; chronically infected rats (RCP, RCB, RCPB), plasma): 31
controlling parasitemia (Trypanosoma cruzi; acutely infected individuals): effective
efficacy in arresting or reversing disease progression (Trypanosoma cruzi; chronically infected patients): not clearly established
